Assay results as given in US7384916B2, “Methods and compositions for preventing and treating aging or photodamaged skin” (ProCyte Corporation, priority 2005, dated 2008).

What was measured:
Type in all cases: cell-based
[1] = tested on: Normal human dermal fibroblasts; experiment: Viability of dermal fibroblasts (neutral red stain); details: for Neutral Red Stain - Cell Viability: 3 days, control 212
Method: (§1) The effect of peptide manganese complexes on the growth and viability of fibroblasts was determined. Normal human dermal fibroblasts were seeded into a 96-well cell culture plate and grown to confluence in high glucose media supplemented with 10% fetal calf serum for 3 days. The fibroblasts were then placed in low glucose media with 2% serum and various amounts of a representative peptide manganese complex. After 3 days, the cells were incubated with neutral red to assess their viability and stained with sulforhodamin B and counted to determine the number of cells.

[2] = tested on: Normal human dermal fibroblasts; experiment: Stimulation of collagen type I formation in fibroblasts (sandwich ELISA of culture media); details: for ELISA Collagen Type I / ELISA Collagen Type I (% Increase): 3 days; for ELISA Collagen Type I: low glucose media with 2% serum, control 48; for ELISA Collagen Type I (% Increase): vs 0 ug/ml control
Method: The effect of peptide manganese complexes on collagen formation was determined by determining the amount of collagen type I produced by human fibroblasts in cell culture. Normal human dermal fibroblasts were seeded into a 96-well cell culture plate and grown to confluence in high glucose media supplemented with 10% fetal calf serum for 3 days. The fibroblasts were then placed in low glucose media with 2% serum and various amounts of a representative peptide manganese complex. After 3 days, the culture media was collected and analyzed for collagen type I content by a sandwich ELISA assay using purified antibody to collagen type I.

[3] = tested on: Normal human dermal fibroblasts; experiment: Proliferation of dermal fibroblasts (sulforhodamin B stain, cell number); details: for Sulforhodamin B Stain - Cell Number / Sulforhodamin B Stain - Cell Number (% Increase): 3 days; for Sulforhodamin B Stain - Cell Number: control 313; for Sulforhodamin B Stain - Cell Number (% Increase): vs 0 ug/ml control
Method: as §1

glycyl-L-histidyl-L-lysine:manganese(II)
Neutral Red Stain - Cell Viability ([1]; 10 ug/ml complex): 231
Neutral Red Stain - Cell Viability ([1]; 100 ug/ml complex): 253
Effect on viability of normal human dermal fibroblasts (in words) ([1]; summary of Table 6): increased their viability
ELISA Collagen Type I ([2]; 10 ug/ml complex): 61.5
ELISA Collagen Type I (% Increase) ([2]; 10 ug/ml complex): +28%
ELISA Collagen Type I ([2]; 100 ug/ml complex): 102.5
ELISA Collagen Type I (% Increase) ([2]; 100 ug/ml complex): +129%
Effect on formation of collagen type I (in words) ([2]; summary of Table 4): stimulated the formation of collagen type I
Sulforhodamin B Stain - Cell Number ([3]; 10 ug/ml complex): 383
Sulforhodamin B Stain - Cell Number (% Increase) ([3]; 10 ug/ml complex): +22%
Sulforhodamin B Stain - Cell Number ([3]; 100 ug/ml complex): 535
Sulforhodamin B Stain - Cell Number (% Increase) ([3]; 100 ug/ml complex): +71%
Effect on proliferation of normal human dermal fibroblasts (in words) ([3]; summary of Table 5): stimulated the proliferation
